According to patent publication US9617251B2, “Indanylaminopyridylcyclopropanecarboxylic acids, pharmaceutical compositions and uses thereof” (BOEHRINGER INGELHEIM INTERNATIONAL GMBH, priority 2015, dated 2017):
In brackets after ≈: the same amount, converted by molar mass.

Legend:
[1] = target: T1, cytochrome P450 2C8-isoenzyme (Homo sapiens, UniProt P10632); assay: Inhibition of CYP-2C8 (deethylation of amodiaquine, human liver microsomes); assay type: in vitro ADME; conditions: CYP-2C8, human liver microsomes, amodiaquine 1 μM, 37° C.
T1 construct: from tissue; host or cells: human liver microsomes
T1 sequence (P10632 1-490): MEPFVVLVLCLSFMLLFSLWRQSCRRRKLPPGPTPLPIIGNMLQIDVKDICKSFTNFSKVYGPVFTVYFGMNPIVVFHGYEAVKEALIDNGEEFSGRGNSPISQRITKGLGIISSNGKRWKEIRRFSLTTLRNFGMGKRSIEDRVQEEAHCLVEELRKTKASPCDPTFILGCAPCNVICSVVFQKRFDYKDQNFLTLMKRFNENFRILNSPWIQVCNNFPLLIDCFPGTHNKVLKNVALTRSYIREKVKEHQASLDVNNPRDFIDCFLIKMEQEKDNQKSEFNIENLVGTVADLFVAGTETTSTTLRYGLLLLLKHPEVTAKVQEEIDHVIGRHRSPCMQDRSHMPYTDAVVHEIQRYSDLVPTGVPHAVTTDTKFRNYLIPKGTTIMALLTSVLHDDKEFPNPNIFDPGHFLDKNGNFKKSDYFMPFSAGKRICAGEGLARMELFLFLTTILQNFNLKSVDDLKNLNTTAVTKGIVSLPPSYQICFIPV
Protocol: The inhibition of cytochrome P450 2C8-isoenzyme catalyzed deethylation of amodiaquine by the test compound is assayed at 37° C. with human liver microsomes. All assays are carried out on a robotic system in 96 well plates. The final incubation volume contains TRIS buffer (0.1 M), MgCl2 (5 mM), human liver microsomes (0.05 mg/mL), amodiaquine (1 μM) and the test compound at five different concentrations or no compound (high control) in duplicate (e.g. highest concentration 10-50 μM with subsequent serial 1:4 dilutions). Following a short preincubation period, reactions are started with the cofactor (NADPH, 1 mM) and stopped by cooling the incubation down to 8° C. and subsequently by addition of one volume of acetonitrile. An internal standard solution—the stable isotope d5-desethylamodiaquine—is added after quenching of incubations. Peak area analyte (=metabolite formed) and internal standard is determined by LC-MS/MS. The resulting peak area ratio analyte to internal standard in these incubations is compared to a control activity containing no test compound. Within each of the assay runs, the IC50 of a positive control inhibitor (Montelukast) is determined. Experimental IC50 values are calculated by least square regression according to the following equation: % control activity=(100% control activity/(1+(I/IC50)S))−B with I=inhibitor concentration; S=slope factor; B=background activity (lower plateau of the inhibition curve)
(§1) If the inhibition of the reaction is already >50% at the lowest concentration of the test compound, the IC50 is assigned “<lowest concentration tested” (usually <0.4 μM). If the inhibition of the reaction is still <50% at the highest concentration of the test compound, the IC50 is assigned “>highest concentration tested” (usually >50 μM).

[2] = target: T2, cytochrome P450 2C9-isoenzyme (Homo sapiens, UniProt P11712); assay: Inhibition of CYP-2C9 (hydroxylation of diclofenac, human liver microsomes); assay type: in vitro ADME; conditions: CYP-2C9, human liver microsomes, diclofenac 10 μM, 37° C.
T2 construct: from tissue; host or cells: human liver microsomes
T2 sequence (P11712 whole entry): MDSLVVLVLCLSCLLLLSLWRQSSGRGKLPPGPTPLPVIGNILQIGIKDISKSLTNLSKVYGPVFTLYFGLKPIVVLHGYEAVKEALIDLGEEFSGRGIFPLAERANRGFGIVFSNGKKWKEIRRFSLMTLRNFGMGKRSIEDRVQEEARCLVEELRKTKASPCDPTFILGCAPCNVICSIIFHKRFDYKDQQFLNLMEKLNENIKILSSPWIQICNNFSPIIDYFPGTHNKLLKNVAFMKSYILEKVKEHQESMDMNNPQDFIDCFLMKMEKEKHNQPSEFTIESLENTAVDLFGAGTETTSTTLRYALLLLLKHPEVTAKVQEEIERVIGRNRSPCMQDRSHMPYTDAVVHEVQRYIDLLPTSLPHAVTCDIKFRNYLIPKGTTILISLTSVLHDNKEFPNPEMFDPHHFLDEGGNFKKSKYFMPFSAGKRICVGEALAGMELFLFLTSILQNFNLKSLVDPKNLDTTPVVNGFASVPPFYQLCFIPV
Protocol: The inhibition of cytochrome P450 2C9-isoenzyme catalyzed hydroxylation of diclofenac by the test compound is assayed at 37° C. with human liver microsomes. All assays are carried out on a robotic system in 96 well plates. The final incubation volume contains TRIS buffer (0.1 M), MgCl2 (5 mM), human liver microsomes (0.1 mg/mL), diclofenac (10 μM) and the test compound at five different concentrations or no compound (high control) in duplicate (e.g., highest concentration 10-50 μM with subsequent serial 1:4 dilutions). Following a short preincubation period, reactions are started with the cofactor (NADPH, 1 mM) and stopped by cooling the incubation down to 8° C. and subsequently by addition of one volume of acetonitrile. An internal standard solution—the stable isotope ^13C6-hydroxydiclofenac—is added after quenching of incubations. Peak area analyte (=metabolite formed) and internal standard is determined by LC-MS/MS. The resulting peak area ratio analyte to internal standard in these incubations is compared to a control activity containing no test compound. Within each of the assay runs, the IC50 of a positive control inhibitor (sulfaphenazole) is determined. Experimental IC50 values are calculated by least square regression according to the following equation: % control activity=(100% control activity/(1+(I/IC50)S))−B with I=inhibitor concentration; S=slope factor; B=background activity (lower plateau of the inhibition curve)
as §1

[3] = target: human GPR40 receptor (Homo sapiens, UniProt O14842); assay: IP1 accumulation measurements using the IPOne assay system (1321N1 cells stably expressing human GPR40 receptor); assay type: cell-based; conditions: 1321N1 cells expressing human GPR40, 1 h stimulation at 37° C.
human GPR40 receptor, sequence (O14842 whole entry): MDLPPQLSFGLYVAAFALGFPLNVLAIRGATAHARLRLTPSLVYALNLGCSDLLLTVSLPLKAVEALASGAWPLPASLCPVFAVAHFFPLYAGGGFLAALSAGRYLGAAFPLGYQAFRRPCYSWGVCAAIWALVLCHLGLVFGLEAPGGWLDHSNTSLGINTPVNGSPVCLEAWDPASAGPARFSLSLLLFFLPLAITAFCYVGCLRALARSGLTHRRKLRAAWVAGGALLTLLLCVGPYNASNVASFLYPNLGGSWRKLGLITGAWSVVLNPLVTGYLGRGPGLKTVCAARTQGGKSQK
Protocol: IP1 accumulation measurements using the IPOne assay system—1321N1 cells stably expressing human GPR40 receptor (Euroscreen, Belgium) are seeded 24 h before the assay in white 384-well plates in culture medium containing 10% FCS, 1% Na-Pyruvate and 400 μg/mL G418. IP1 is assayed according to the manufacturer's description (Cisbio Bioassays, France). In brief, the assay is started by substitution of the culture medium by stimulation buffer (Hepes 10 mM, CaCl2 1 mM, MgCl2 0.5 mM, KCl 4.2 mM, NaCl 146 mM, glucose 5.5 mM and LiCl 50 mM, pH 7.4). Cells are stimulated for 1 h at 37° C., 5% CO2 by addition of the compounds that are diluted in stimulation buffer containing LiCl. Assays are stopped by adding HTRF-conjugates (IP1-d2 and Anti-IP1 cryptate Tb) and lysis buffer, provided by the manufacturer. After an incubation time of 1 h at room temperature plates are measured using an EnVision™, Perkin Elmer. The obtained fluorescence ratios at 665/615 […] are then used to calculate the pEC50 values using Assay Explorer 3.3 Software (Accelrys, Inc.) by interpolation using an IP1 reference curve and subsequent sigmoidal curve fitting allowing for a variable hill slope.

[4] = Aqueous solubility in buffer vs acetonitrile/water (1/1), LC-UV; assay type: physicochemical; conditions: kinetic from dmso stock, buffer pH 2.2, 24 h shaking, 2.5% DMSO
Protocol: The aqueous solubility of the compounds of the invention is determined by comparing the amount dissolved in buffer to the amount in an acetonitrile/water (1/1) solution. Starting from a 10 mM DMSO stock solution aliquots are diluted with acetonitrile/water (1/1) or buffer, respectively. After 24 h of shaking, the solutions are filtrated and analyzed by LC-UV. The amount dissolved in buffer is compared to the amount in the acetonitrile solution.
Solubility is usually being measured from 0.001 to 0.125 mg/mL at a DMSO concentration of 2.5%. If more than 90% of the compound is dissolved in buffer, the value is marked with “>”.

Q: Which IC50 [1] does the source give for Cc1cc(-c2nnn(C)n2)cc(C)c1-c1cccc2c1CC[C@H]2Nc1ccc(C2C[C@@H]2C(=O)O)cn1 (mixture of isomers) [Example 5, trans-2-(6-{(R)-4-[2,6-Dimethyl-4-(2-methyl-2H-tetrazol-5-yl)-phenyl]-indan-1-ylamino}-pyridin-3-yl)-cyclopropanecarboxylic acid] here?
A: 12000 nM

Q: And the IC50 [2]?
A: 48000 nM

Q: What about the EC50 [3] of the same compound?
A: 16 nM

Q: With Cc1cc(OCCC(C)(C)O)cc(C)c1-c1cccc2c1CC[C@H]2Nc1ccc(C2C[C@@H]2C(=O)O)cn1 (mixture of isomers) [Example 6, trans-2-(6-{(R)-4-[4-(3-Hydroxy-3-methyl-butoxy)-2,6-dimethyl-phenyl]-indan-1-ylamino}-pyridin-3-yl)-cyclopropanecarboxylic acid] as the compound, how does the IC50 [1] read?
A: > 50000 nM

Q: What about the IC50 [2] of the same compound?
A: > 50000 nM

Q: What about the EC50 [3] of the same compound?
A: 19 nM

Q: Which results are given for Cc1cc(-c2nnn(C)n2)cc(C)c1-c1ccc(F)c2c1CC[C@H]2Nc1ccc(C2C[C@@H]2C(=O)O)cn1 (mixture of isomers) [Example 7, trans-2-(6-{(R)-4-[2,6-Dimethyl-4-(2-methyl-2H-tetrazol-5-yl)-phenyl]-7-fluoro-indan-1-ylamino}-pyridin-3-yl)-cyclopropanecarboxylic acid]?
A: IC50 [1]: 38000 nM; IC50 [2]: > 50000 nM; EC50 [3]: 19 nM

Q: What does the source list for Cc1cc(OCCC(C)(C)O)cc(C)c1-c1ccc(F)c2c1CC[C@H]2Nc1ccc(C2C[C@@H]2C(=O)O)cn1 (mixture of isomers) [Example 8, trans-2-(6-{(R)-7-Fluoro-4-[4-(3-hydroxy-3-methyl-butoxy)-2,6-dimethyl-phenyl]-indan-1-ylamino}-pyridin-3-yl)-cyclopropanecarboxylic acid]?
A: IC50 [1]: > 50000 nM; IC50 [2]: > 50000 nM; EC50 [3]: 16 nM

Q: For Cc1cc(-c2nnn(C)n2)cc(C)c1-c1ccc(F)c2c1CC[C@H]2Nc1ccc([C@H]2C[C@@H]2C(=O)O)cn1 [Example 3, (1S,2S)-2-(6-{(R)-4-[2,6-Dimethyl-4-(2-methyl-2H-tetrazol-5-yl)-phenyl]-7-fluoro-indan-1-ylamino}-pyridin-3-yl)-cyclopropanecarboxylic acid], which IC50 [1] is on record?
A: 19000 nM

Q: What about the solubility at 24 h [4] of the same compound?
A: 91 µg/mL (≈ 183 µM)

Q: What about the IC50 [2] of the same compound?
A: > 50000 nM

Q: And the EC50 [3]?
A: 4 nM

Q: For Cc1cc(-c2nnn(C)n2)cc(C)c1-c1cccc2c1CC[C@H]2Nc1ccc([C@@H]2C[C@H]2C(=O)O)cn1 [Example 9, (1R,2R)-2-(6-{(R)-4-[2,6-Dimethyl-4-(2-methyl-2H-tetrazol-5-yl)-phenyl]-indan-1-ylamino}-pyridin-3-yl)-cyclopropanecarboxylic acid], which EC50 [3] is on record?
A: 259 nM

Q: With Cc1cc(OCCC(C)(C)O)cc(C)c1-c1cccc2c1CC[C@H]2Nc1ccc([C@@H]2C[C@H]2C(=O)O)cn1 [Example 10, (1R,2R)-2-(6-{(R)-4-[4-(3-Hydroxy-3-methyl-butoxy)-2,6-dimethyl-phenyl]-indan-1-ylamino}-pyridin-3-yl)-cyclopropanecarboxylic acid] as the compound, how does the EC50 [3] read?
A: 497 nM

Q: For Cc1cc(OCCC(C)(C)O)cc(C)c1-c1ccc(F)c2c1CC[C@H]2Nc1ccc([C@@H]2C[C@H]2C(=O)O)cn1 [Example 12, (1R,2R)-2-(6-{(R)-7-Fluoro-4-[4-(3-hydroxy-3-methyl-butoxy)-2,6-dimethyl-phenyl]-indan-1-ylamino}-pyridin-3-yl)-cyclopropanecarboxylic acid], which EC50 [3] is on record?
A: 568 nM

Q: For Cc1cc(O[C@H]2CCOC2)cc(C)c1-c1ccc(F)c2c1CC[C@H]2Nc1ccc([C@H]2C[C@@H]2C(=O)O)cn1 [Example 13], which IC50 [1] is on record?
A: 49000 nM

Q: And the solubility at 24 h [4]?
A: 115 µg/mL (≈ 229 µM)

Q: And the IC50 [2]?
A: > 50000 nM

Q: What about the EC50 [3] of the same compound?
A: 27 nM

Q: What does the source list for Cc1cc(-c2nnn(CC(C)(C)O)n2)cc(C)c1-c1ccc(F)c2c1CC[C@H]2Nc1ccc([C@H]2C[C@@H]2C(=O)O)cn1 [Example 14]?
A: IC50 [1]: 45000 nM; solubility at 24 h [4]: 83 µg/mL (≈ 149 µM); IC50 [2]: > 50000 nM; EC50 [3]: 4 nM

Q: Which IC50 [1] does the source give for Cc1cc(OC2CCOCC2)cc(C)c1-c1ccc(F)c2c1CC[C@H]2Nc1ccc([C@H]2C[C@@H]2C(=O)O)cn1 [Example 15] here?
A: 26000 nM

Q: And the IC50 [2]?
A: > 50000 nM

Q: And the EC50 [3]?
A: 18 nM

Q: Which results are given for Cc1cc(C(=O)O)cc(C)c1-c1ccc(F)c2c1CC[C@H]2Nc1ccc([C@H]2C[C@@H]2C(=O)O)cn1 [Example 40]?
A: IC50 [1]: > 50000 nM; IC50 [2]: > 50000 nM; EC50 [3]: 940 nM

Q: For Cc1cc(OCC2(O)CCS(=O)(=O)CC2)cc(C)c1-c1ccc(F)c2c1CC[C@H]2Nc1ccc([C@H]2C[C@@H]2C(=O)O)cn1 [Example 64], which IC50 [1] is on record?
A: > 50000 nM

Q: And the IC50 [2]?
A: > 50000 nM

Q: What about the EC50 [3] of the same compound?
A: 29 nM

Q: With Cc1cc(OC2CCOCC2)cc(C)c1-c1cccc2c1CC[C@H]2Nc1ccc([C@H]2C[C@@H]2C(=O)O)cn1 [Example 77] as the compound, how does the EC50 [3] read?
A: 20 nM

Q: Which EC50 [3] does the source give for Cc1cc(OCC(C)(C)O)cc(C)c1-c1cccc2c1CC[C@H]2Nc1ccc([C@H]2C[C@@H]2C(=O)O)cn1 [Example 79] here?
A: 23 nM

Q: With Cc1cc(OCC(C)(C)C#N)cc(C)c1-c1cccc2c1CC[C@H]2Nc1ccc([C@H]2C[C@@H]2C(=O)O)cn1 [Example 80] as the compound, how does the EC50 [3] read?
A: 22 nM

Q: For Cc1cc(-c2ccn(C)c(=O)c2)cc(C)c1-c1cccc2c1CC[C@H]2Nc1ccc([C@H]2C[C@@H]2C(=O)O)cn1 [Example 81], which EC50 [3] is on record?
A: 8 nM

Q: With Cc1cc(-c2ccc(=O)n(C)c2)cc(C)c1-c1cccc2c1CC[C@H]2Nc1ccc([C@H]2C[C@@H]2C(=O)O)cn1 [Example 82] as the compound, how does the EC50 [3] read?
A: 18 nM

Q: With Cc1cc(-c2cc(=O)n(C)cn2)cc(C)c1-c1cccc2c1CC[C@H]2Nc1ccc([C@H]2C[C@@H]2C(=O)O)cn1 [Example 83] as the compound, how does the EC50 [3] read?
A: 8 nM

Q: For COc1cc(F)c(-c2cccc3c2CC[C@H]3Nc2ccc([C@H]3C[C@@H]3C(=O)O)cn2)c(F)c1 [Example 84], which EC50 [3] is on record?
A: 212 nM

Q: For O=C(O)[C@H]1C[C@@H]1c1ccc(N[C@@H]2CCc3c(-c4ccccc4C(F)(F)F)cccc32)nc1 [Example 85], which EC50 [3] is on record?
A: 91 nM

Q: For Cc1cc(C(=O)N(C)C)cc(C)c1-c1cccc2c1CC[C@H]2Nc1ccc([C@H]2C[C@@H]2C(=O)O)cn1 [Example 86], which EC50 [3] is on record?
A: 174 nM
